In patent US11673965B2, “Method of treating metastatic triple negative breast cancer with radiotherapy combined with phosphatidyl inositol-3 kinase delta/gamma inhibitors and anti-PD-1 antibodies” (Seoul National University R&DB Foundation, priority 2019, dated 2023):

Test system: 4T1-luc triple negative breast cancer cells
Experiment: Size change of tumor in triple negative breast cancer allograft mouse model
Format: in vivo, mouse (BALB/c)
Details: 31st day; 4T1-luc allograft; duvelisib 4 mg/kg and/or PD-1 blockade 10 mg/kg by injection 6 times; RT 8 Gy×3
Description: A triple negative breast cancer cell line (4T1-luc) was cultured in DMEM (Dulbecco's Modified Eagle's Medium, CORNING™) medium containing 10% (v/v) fetal bovine serum (FBS) and 1% (w/v) Penicillin-Streptomycin, using a cell culture flask, in a thermostat cell culture device under the condition of 37° C., 5% CO2.
6×10^5 4T1-luc triple negative breast cancer cells prepared in Example 1-1 were injected to the right hindlimb of a BALB/c female age standard (8 weeks) mice. At the 10th day after injecting each of the cancer cells, the mice with the tumor volume up to 40 mm^3 were selected, and were used for later experiments.
The triple negative breast cancer (TNBC) mouse model prepared by the method of Example 1-2 was assigned to 7 groups in total from the 10th day after cancer cell transplantation, and each treatment method was performed, and it was grouped into 7 groups so that the tumor mean volume of 7 mice was 40 mm^3 per group, and were used for later experiments.
Each treatment was progressed for 31 days after tumor transplantation. […]
On the day of each treatment, the size of tumor, the length and width were measured using Vernier caliper, and then the volume (mm^3) of tumor was calculated by the method of the following equation 1. […]

Work on `C[C@H](Nc1ncnc2nc[nH]c12)c1cc2cccc(Cl)c2c(=O)n1-c1ccccc1` [PI3K γ δ inhibitor, duvelisib] yielded a Mean tumor volume of 786.59 mm^3.
